{"source": "PubChem BioAssay AID1996"}
{"details": "buffer; pH 7.4; 200.0 µM", "units": {"solubility kinetic": "µg/mL"}}
{"smiles": "Cc1cccc(NC(=S)NC23CN4CN(CN(C4)C2)C3)c1C", "solubility kinetic": 46.8}
{"smiles": "N#Cc1ccc(Sc2ccccn2)c([N+](=O)[O-])c1", "solubility kinetic": 36.5}
{"smiles": "O=C1CCCN1C(=O)COc1cc(F)ccc1[N+](=O)[O-]", "solubility kinetic": "> 42.3"}
{"smiles": "CCOc1ccc(NC(=O)Nc2nc(SCC)ns2)cc1", "solubility kinetic": 0.8}
{"smiles": "CCN(c1ccccc1)S(=O)(=O)c1ccc(Oc2ccccc2C(C)=O)nc1", "solubility kinetic": 18.6}
{"smiles": "CN1CCN(c2nc3c(c(=O)[nH]c(=O)n3C)n2Cc2ccccc2)CC1", "solubility kinetic": 52.7}
{"smiles": "CCOC(=O)Cc1csc(NC(=O)Nc2ccc(OC(F)(F)F)cc2)n1", "solubility kinetic": 0.3}
{"smiles": "CCOc1ccc(C(=O)CCC(=O)Nc2ccccc2C)cc1", "solubility kinetic": 4.6}
{"smiles": "CCc1noc(C)c1C(=O)OCC(=O)N1CCc2ccccc21", "solubility kinetic": 4.6}
{"smiles": "CCCCN1C2=NC(c3ccccc3)CN2c2ccccc21.Cl", "note": "(centres undefined)", "solubility kinetic": 44.1}
{"smiles": "O=C(Nc1ccccc1[N+](=O)[O-])C1COc2ccccc2O1", "note": "(centres undefined)", "solubility kinetic": 1}
{"smiles": "COc1ccc(S(=O)(=O)Nc2ncccn2)cc1", "solubility kinetic": 23.1}
{"smiles": "Cc1cccc(NC(=O)Cc2ccc(-c3ccccc3)cc2)n1", "solubility kinetic": 3.6}
{"smiles": "O=C(Nc1ccc(F)cc1F)N1CCCN(c2ccc(C(F)(F)F)cn2)CC1", "solubility kinetic": 7.3}
{"smiles": "O=C(O)CC1(CC(=O)NCc2ccc(F)cc2)CCCCC1", "solubility kinetic": "> 46.1"}
{"smiles": "Cc1cccc2c3c([nH]c12)CCNC3.Cl", "solubility kinetic": "> 33.4"}
{"smiles": "Cc1nc(Cc2ccc(OC(C)C)cc2)[nH]c(=O)c1CC(=O)O", "solubility kinetic": "> 47.5"}
{"smiles": "CN(C)c1cccc(C(=O)N/C=C/n2cnc3cc(C(F)(F)F)ccc32)c1", "solubility kinetic": 0.4}
{"smiles": "CC(=O)c1ccc(S(=O)(=O)N2CCC(C(=O)Nc3ncc(C)s3)CC2)cc1", "solubility kinetic": 3}
{"smiles": "Cc1ccc(S(=O)(=O)Nc2ccc3ccccc3n2)cc1", "solubility kinetic": 33.5}
{"smiles": "Cc1ccc(CC(=O)NCCN2CCOCC2)cc1", "solubility kinetic": "> 39.4"}
{"smiles": "O=[N+]([O-])c1cccc(Oc2cnccn2)c1", "solubility kinetic": 31.8}
{"smiles": "Cc1cccc(-c2nc3ccccc3c(=O)[nH]2)c1", "solubility kinetic": 4.2}
{"smiles": "Cc1cc(OC(=O)c2cccc(Cl)c2)c([N+](=O)[O-])c(=O)[nH]1", "solubility kinetic": 40.9}
{"smiles": "O=c1[nH]c(N2CCCCCC2)nc2ncn(Cc3ccccc3)c12", "solubility kinetic": 13}
{"smiles": "NS(=O)(=O)c1ccc(CCNC(=O)C2CCCO2)cc1", "note": "(centres undefined)", "solubility kinetic": "> 44.8"}
{"smiles": "COc1ccccc1N1CCN(S(=O)(=O)c2ccc(Cl)cc2)CC1", "solubility kinetic": 4}
{"smiles": "COc1ccc2oc(-c3ccccc3)c(C(=O)N(C)C)c2c1", "solubility kinetic": "> 44.3"}
{"smiles": "COc1ccc(N(C)S(=O)(=O)c2cccc(C(=O)OCC(=O)N(C)c3ccccc3)c2)cc1", "solubility kinetic": 7.9}
{"smiles": "COc1ccc(CC(=O)Nc2ccc3c(c2)C(=O)N(CCC(=O)O)C3=O)cc1", "solubility kinetic": 53.2}
{"smiles": "Cc1ccccc1C(=O)Nc1scc(-c2ccc(Br)cc2)c1C(=O)O", "solubility kinetic": 3.5}
{"smiles": "CC(C)CCN1CCN(Cc2ccoc2)CC1CCO", "note": "(centres undefined)", "solubility kinetic": 29.6}
{"smiles": "COc1cc(C(=O)OCC#N)ccc1OCc1c(C)noc1C", "solubility kinetic": 4}
{"smiles": "Cc1ccc(S(=O)(=O)CC(=O)c2ccccc2[N+](=O)[O-])cc1", "solubility kinetic": 42.8}
{"smiles": "CCC(=O)Nc1ccc(NC(=O)c2oc3ccccc3c2C)cc1", "solubility kinetic": 1.2}
{"smiles": "COc1cccc(CNc2nc3ccccc3n2C(C)C)c1O", "solubility kinetic": 2.2}
{"smiles": "CS(=O)(=O)N(CC(=O)NCCSC1CCCCC1)c1ccccc1", "solubility kinetic": 40.5}
{"smiles": "CCCCS(=O)(=O)N1CCCC(C(=O)Oc2ccc(Cl)cc2)C1", "note": "(centres undefined)", "solubility kinetic": "< 0.8"}
{"smiles": "Cc1onc(-c2c(F)cccc2Cl)c1C(=O)N1CCCCC1", "solubility kinetic": "> 48.4"}
{"smiles": "COCc1cc(Sc2ccc(Cl)cc2)nc(C)n1", "solubility kinetic": 40.1}
{"smiles": "CC(NC(=O)CCl)c1ccccc1Br", "note": "(centres undefined)", "solubility kinetic": "> 41.5"}
{"smiles": "CNC(=O)c1ccc(NC(=O)CC23CC4CC(CC(C4)C2)C3)cc1", "solubility kinetic": 13.8}
{"smiles": "Cl.OCCNCc1cccc(Br)c1", "solubility kinetic": "> 40"}
{"smiles": "CC(C)N(Cc1ccccc1)C(=O)COC(=O)c1cnc(Cl)c(Cl)c1", "solubility kinetic": 33.9}
{"smiles": "O=C(c1ccc(F)cc1Cl)N1CCN(CCc2ccccc2)CC1", "solubility kinetic": "> 52"}
{"smiles": "CC(C)(C)C1CCCCC1NC(=O)c1ccncc1", "note": "(centres undefined)", "solubility kinetic": 4.1}
{"smiles": "c1cc(OCCCN2CCCCC2)ccc1CN1CCCCC1", "solubility kinetic": 44.7}
{"smiles": "O=C(CN1C(=O)NC2(CCCCCCC2)C1=O)NCc1ccc(Cl)cc1", "solubility kinetic": 9.9}
{"smiles": "C[N+]1(C)C2CCC1CC(OC(=O)c1ccco1)C2.[Br-]", "note": "(centres undefined)", "solubility kinetic": 48.5}
{"smiles": "COc1ccc(NC(=O)c2cc3ccccc3oc2=O)c(OC)c1", "solubility kinetic": "< 0.7"}
{"smiles": "O=C(N/N=C/c1ccco1)c1ccc2nc[nH]c2c1", "solubility kinetic": "> 38.1"}
{"smiles": "Cc1ncc(CSc2nccc(=O)[nH]2)c(CO)c1O", "solubility kinetic": "> 41.9"}
{"smiles": "CC(C)NC[C@H](O)COc1cccc2ccccc12.Cl", "solubility kinetic": "> 44.4"}
{"smiles": "O=C(COc1ccc(Cl)cc1Br)NC(=O)NC1CCCC1", "solubility kinetic": 6.4}
{"smiles": "CCC(OC(=O)c1nsc(Cl)c1Cl)C(=O)NC(C)(C)C", "note": "(centres undefined)", "solubility kinetic": 46.6}
{"smiles": "Cc1ccc(C)c(NC(=O)C(CC(=O)O)Cc2ccccc2)c1", "note": "(centres undefined)", "solubility kinetic": "> 46.7"}
{"smiles": "O=C(Oc1coc(CSc2ncccn2)cc1=O)c1ccco1", "solubility kinetic": 46.5}
{"smiles": "CCC(=O)c1cn(CC(=O)Nc2ccccc2)c2ccccc12", "solubility kinetic": "< 0.3"}
{"smiles": "CC(C)(C)NC(=O)CSc1nc2cc(S(=O)(=O)N3CCCCC3)ccc2o1", "solubility kinetic": 3.7}
